Assay results as given in PubChem BioAssay (NCI).
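Cells were grown in 96-well plates and exposed to each compound for 48 hours at five concentrations; endpoints were interpolated linearly between bracketing concentrations, or set to the highest concentration if not reached. GI50 = concentration required for 50% inhibition of growth. TGI: concentration producing complete growth inhibition.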

Assays:
Experiment in all cases: growth of human tumour cells (NCI), 48 h; in the data active = GI50 below about 0.43 µM; inactive = the rest
[1] = system: 786-0 renal
[2] = system: A498 renal
[3] = system: A549 NSCLC
[4] = system: ACHN renal
[5] = system: BT-549 breast
[6] = system: CAKI-1 renal
[7] = system: CCRF-CEM leukemia
[8] = system: COLO 205 colon
[9] = system: DU-145 prostate
[10] = system: HCC-2998 colon
[11] = system: HCT-116 colon
[12] = system: HCT-15 colon
[13] = system: HOP-62 NSCLC
[14] = system: HOP-92 NSCLC
[15] = system: HS 578T breast
[16] = system: HT29 colon
[17] = system: IGROV1 ovarian
[18] = system: K-562 leukemia
[19] = system: KM12 colon
[20] = system: LOX IMVI melanoma
[21] = system: M14 melanoma
[22] = system: MALME-3M melanoma
[23] = system: MCF7 breast
[24] = system: MDA-MB-231 breast
[25] = system: MDA-MB-435
[26] = system: MOLT-4 leukemia
[27] = system: NCI-H226 lung
[28] = system: NCI-H23 lung
[29] = system: NCI-H460 lung
[30] = system: NCI-H522 lung
[31] = system: NCI/ADR-RES ovarian
[32] = system: OVCAR-3 ovarian
[33] = system: OVCAR-4 ovarian
[34] = system: OVCAR-5 ovarian
[35] = system: OVCAR-8 ovarian
[36] = system: PC-3 prostate
[37] = system: RPMI-8226 leukemia
[38] = system: RXF 393 renal
[39] = system: SF-268 CNS
[40] = system: SF-539 CNS
[41] = system: SK-MEL-2 melanoma
[42] = system: SK-MEL-28 melanoma
[43] = system: SK-MEL-5 melanoma
[44] = system: SK-OV-3 ovarian
[45] = system: SN12C renal
[46] = system: SNB-19 CNS
[47] = system: SNB-75 CNS
[48] = system: SR leukemia
[49] = system: SW-620 colon
[50] = system: T-47D breast
[51] = system: TK-10 renal
[52] = system: UACC-62 melanoma
[53] = system: UO-31 renal
[54] = system: EKVX NSCLC
[55] = system: SF-295 CNS
[56] = system: U251 CNS
[57] = system: UACC-257 melanoma

CCc1ccc2cc3c(ccc4ccccc43)c3c2c1CC3
> 100 µM: TGI [1] | TGI [2] | TGI [3] | TGI [4] | TGI [5] | TGI [6] | TGI [7] | TGI [8] | TGI [9] | TGI [10] | TGI [11] | TGI [12] | TGI [13] | TGI [14] | TGI [15] | TGI [16] | TGI [17] | TGI [18] | TGI [19] | TGI [20] | TGI [21] | TGI [22] | TGI [23] | TGI [24] | TGI [25] | TGI [26] | TGI [27] | TGI [28] | TGI [29] | TGI [30] | TGI [31] | TGI [32] | TGI [33] | TGI [34] | TGI [35] | TGI [36] | TGI [37] | TGI [38] | TGI [39] | TGI [40] | TGI [41] | TGI [42] | TGI [43] | TGI [44] | TGI [45] | TGI [46] | TGI [47] | TGI [48] | TGI [49] | TGI [50] | TGI [51] | TGI [52] | TGI [53]
inactive: GI50 [1] > 100 µM | GI50 [2] > 100 µM | GI50 [3] > 100 µM | GI50 [4] > 100 µM | GI50 [5] > 100 µM | GI50 [6] > 100 µM | GI50 [7] > 100 µM | GI50 [8] > 100 µM | GI50 [9] > 100 µM | GI50 [10] > 100 µM | GI50 [11] > 100 µM | GI50 [12] > 100 µM | GI50 [13] > 100 µM | GI50 [14] > 100 µM | GI50 [15] > 100 µM | GI50 [16] > 100 µM | GI50 [17] > 100 µM | GI50 [18] > 100 µM | GI50 [19] > 100 µM | GI50 [20] > 100 µM | GI50 [21] > 100 µM | GI50 [22] > 100 µM | GI50 [23] 0.6 µM | GI50 [24] > 100 µM | GI50 [25] > 100 µM | GI50 [26] > 100 µM | GI50 [27] > 100 µM | GI50 [28] > 100 µM | GI50 [29] > 100 µM | GI50 [30] > 100 µM | GI50 [31] > 100 µM | GI50 [32] > 100 µM | GI50 [33] > 100 µM | GI50 [34] > 100 µM | GI50 [35] > 100 µM | GI50 [36] > 100 µM | GI50 [37] > 100 µM | GI50 [38] > 100 µM | GI50 [39] > 100 µM | GI50 [40] > 100 µM | GI50 [41] > 100 µM | GI50 [42] > 100 µM | GI50 [43] > 100 µM | GI50 [44] > 100 µM | GI50 [45] > 100 µM | GI50 [46] > 100 µM | GI50 [47] > 100 µM | GI50 [48] > 100 µM | GI50 [49] > 100 µM | GI50 [50] > 100 µM | GI50 [51] > 100 µM | GI50 [52] > 100 µM | GI50 [53] > 100 µM

C=C(CN1CCc2ccccc2C1)c1ccc(C(=O)Nc2cccc(N)c2)cc1
68.4 µM: TGI [13]
87.1 µM: TGI [4]
36.5 µM: TGI [45]
62.3 µM: TGI [28]
56.2 µM: TGI [54]
57.4 µM: TGI [56]
47.2 µM: TGI [17]
73.5 µM: TGI [44]
30 µM: TGI [18]
45.5 µM: TGI [2] | TGI [8]
52.1 µM: TGI [49]
29.1 µM: TGI [21]
44.8 µM: TGI [24]
46.6 µM: TGI [1]
43.7 µM: TGI [38]
44 µM: TGI [9]
61.2 µM: TGI [3]
34.1 µM: TGI [22]
35.3 µM: TGI [32] | TGI [40]
69.8 µM: TGI [12]
43 µM: TGI [47]
51.2 µM: TGI [55]
40.2 µM: TGI [30]
29.7 µM: TGI [57]
28.3 µM: TGI [43]
31.9 µM: TGI [10] | TGI [25]
45.1 µM: TGI [6]
inactive: GI50 [1] 17.2 µM | GI50 [2] 20.5 µM | GI50 [3] 20.5 µM | GI50 [4] 28.8 µM | GI50 [5] 16.2 µM | GI50 [6] 16.3 µM | GI50 [7] 16.4 µM | GI50 [8] 20.7 µM | GI50 [9] 19 µM | GI50 [54] 9.48 µM | GI50 [10] 17.1 µM | GI50 [11] 16 µM | GI50 [12] 27.4 µM | GI50 [13] 25.6 µM | GI50 [14] 63.9 µM | GI50 [15] 24.7 µM | GI50 [16] 20.4 µM | GI50 [17] 16 µM | GI50 [18] 7.53 µM | GI50 [19] 16.5 µM | GI50 [21] 15.4 µM | GI50 [22] 15.1 µM | GI50 [23] 17.5 µM | GI50 [24] 18.1 µM | GI50 [25] 14 µM | GI50 [26] 6 µM | GI50 [27] 22.3 µM | GI50 [28] 19.8 µM | GI50 [29] 19.9 µM | GI50 [30] 18 µM | GI50 [31] 21.7 µM | GI50 [32] 13.6 µM | GI50 [34] 60.9 µM | GI50 [35] 20.6 µM | GI50 [36] 21.9 µM | GI50 [37] 16.3 µM | GI50 [38] 19.1 µM | GI50 [39] 19 µM | GI50 [55] 20 µM | GI50 [40] 17.4 µM | GI50 [41] 23.7 µM | GI50 [42] 31.1 µM | GI50 [43] 13.6 µM | GI50 [44] 29.5 µM | GI50 [45] 18.8 µM | GI50 [46] 35.9 µM | GI50 [47] 15.6 µM | GI50 [48] 11.7 µM | GI50 [49] 23 µM | GI50 [50] 27.3 µM | GI50 [51] 27.3 µM | GI50 [56] 22.3 µM | GI50 [57] 14.8 µM | GI50 [52] 17.1 µM | GI50 [53] 16 µM
33.5 µM: TGI [11]
28.6 µM: TGI [26]
33.7 µM: TGI [19]
94.7 µM: TGI [16]
> 100 µM: TGI [7] | TGI [14] | TGI [34] | TGI [36] | TGI [37] | TGI [42] | TGI [46] | TGI [50]
42.8 µM: TGI [23]
58.1 µM: TGI [15]
92.5 µM: TGI [51]
34.4 µM: TGI [5]
45.9 µM: TGI [39]
48.4 µM: TGI [41]
50.8 µM: TGI [27]
44.7 µM: TGI [35]
33.3 µM: TGI [52]
54.8 µM: TGI [48]
50 µM: TGI [29]
76.8 µM: TGI [31]
59.7 µM: TGI [53]
